We go through 2 molecules from patent publication US20170027973A1, “MODULARION OF INVARIANT NATURAL KILLER T CELLS IN THE TREATMENT OF SEPSIS” (LONDON HEALTH SCIENCES CENTRE RESEARCH INC., priority 2014, published 2017).

In experiment [1] the test system is surface TCR of iNKT cells. As to conditions: after 24 hours; cited from earlier work.
A further experiment concerns Jα18−/− mice with IAS. Kind of experiment: IAS model in iNKT-deficient Jα18−/− mice: murine sepsis score. Type of experiment: in vivo, mouse. How it is done: FIG. 4: Th2-polarizing glycolipid OCH reduces disease severity in IAS. C57BL/6 (B6) mice were concomitantly injected i.p. with fecal slurry (FS; 500 μL of 90 mg/mL solution) to induce intra-abdominal sepsis (IAS), and vehicle, OCH, or KRN7000. […] (c) iNKT-deficient Jα18−/− mice were given FS (500 μL of a 90 mg/mL solution) to induce IAS and concomitantly treated with OCH or vehicle. Murine sepsis scores were similar between vehicle and OCH-treated mice (n=3 per group). […] The percentages of T cells remained unchanged with administration of iNKT-specific glycolipid agonists (n=6, n=4, n=6, and n=3 for vehicle, OCH, Vehicle (KRN7000) and KRN7000 groups respectively). *p<0.05, **p<0.01 by Mann-Whitney U test. (d) Bacterial counts in blood and multiple organs were similar between vehicle-, OCH-, and KRN7000-treated mice with sepsis (n=7-9 per group). Data are representative of at least three independent experiments.
Stool from the cecum of euthanized naïve B6 mice was expressed through an enterotomy, homogenized, and suspended in 0.9% normal saline (NS) to produce a fecal slurry at a final concentration of 90 mg/mL, for use in experiments on the same day. […] The mice were monitored and scored by two independent investigators—one of whom was blinded to the treatment—every 2-3 hours for the first 12 hours, and then every 1-2 hours thereafter. […]

The next experiment relates to invariant TCR. As to conditions: OCH compared to KRN7000; cited from earlier work.

On to `CCCCCCCCCCCCCCCCCCCCCCCCCC(=O)N[C@@H](CO[C@H]1O[C@H](CO)[C@H](O)[C@H](O)[C@H]1O)[C@H](O)[C@H](O)CCCCCCCCCCCCCC` [KRN7000, reference compound], for which, in experiment [1], the “potency at down-regulating the TCR relative to OCH” value is given as “approximately 10 fold”. `CCCCCCCCCCCCCCCCCCCCCCCC(=O)N[C@@H](COC1OC(CO)C(O)C(O)C1O)[C@H](O)[C@H](O)CCCCC` (stereo partly drawn) [OCH]: in the experiment with Jα18−/− mice with IAS, the “disease severity (MSS) versus vehicle” value is recorded as “did not observe any differences”. The “binding affinity for the invariant TCR” value in the experiment on invariant TCR was “lower”.
